How the values were obtained:
[1] = test system: germinal center B-cell like DLBCL lines; assay: Anti-cancer activity in GCB-DLBCL cell lines; assay type: cell-based; settings: six of eleven responsive, read-out: mean IC50 amongst the responsive lines
[2] = test system: cutaneous T-cell lymphoma (CTCL) cell lines; assay: Anti-cancer activity in CTCL cell lines; assay type: cell-based; settings: three of four cell lines tested were responsive, read-out: mean IC50 among the responsive lines
[3] = molecular target: T1, Sal-like protein 4 (SALL4) (Homo sapiens, UniProt Q96SW2+Q9UJQ4); assay: SALL4 degradation in KELLY neuroblastoma cell line; assay type: cell-based; settings: at 10 nM
T1 construct: endogenous in cells; host or cells: KELLY neuroblastoma cell line
T1 sequence (Q9UJQ4 whole entry): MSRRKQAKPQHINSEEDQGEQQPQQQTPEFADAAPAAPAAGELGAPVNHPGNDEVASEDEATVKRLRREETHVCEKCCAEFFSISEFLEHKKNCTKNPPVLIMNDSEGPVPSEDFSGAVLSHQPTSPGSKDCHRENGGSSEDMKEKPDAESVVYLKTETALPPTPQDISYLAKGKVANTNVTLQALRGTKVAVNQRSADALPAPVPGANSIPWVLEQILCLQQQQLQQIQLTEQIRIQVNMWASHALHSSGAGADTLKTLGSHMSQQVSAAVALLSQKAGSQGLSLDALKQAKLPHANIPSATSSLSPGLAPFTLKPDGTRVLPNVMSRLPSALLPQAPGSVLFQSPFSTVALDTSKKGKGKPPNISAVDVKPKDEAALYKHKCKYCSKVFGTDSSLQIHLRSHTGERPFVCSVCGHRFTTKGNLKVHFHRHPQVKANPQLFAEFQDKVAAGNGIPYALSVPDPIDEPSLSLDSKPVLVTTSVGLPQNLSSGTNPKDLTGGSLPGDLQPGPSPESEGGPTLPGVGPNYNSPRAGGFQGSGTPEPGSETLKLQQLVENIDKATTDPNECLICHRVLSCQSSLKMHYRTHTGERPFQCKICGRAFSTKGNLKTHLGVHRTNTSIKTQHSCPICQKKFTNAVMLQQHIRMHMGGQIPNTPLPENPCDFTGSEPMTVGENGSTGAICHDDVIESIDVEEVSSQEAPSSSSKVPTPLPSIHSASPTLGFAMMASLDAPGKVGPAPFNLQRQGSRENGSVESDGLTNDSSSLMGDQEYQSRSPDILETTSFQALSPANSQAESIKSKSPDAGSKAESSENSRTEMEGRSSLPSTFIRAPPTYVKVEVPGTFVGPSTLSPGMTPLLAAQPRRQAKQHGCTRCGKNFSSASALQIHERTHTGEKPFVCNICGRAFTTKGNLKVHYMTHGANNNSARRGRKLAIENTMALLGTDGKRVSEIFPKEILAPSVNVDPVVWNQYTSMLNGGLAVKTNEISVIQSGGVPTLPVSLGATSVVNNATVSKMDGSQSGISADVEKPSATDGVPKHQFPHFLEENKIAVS
T1 sequence (Q96SW2 whole entry): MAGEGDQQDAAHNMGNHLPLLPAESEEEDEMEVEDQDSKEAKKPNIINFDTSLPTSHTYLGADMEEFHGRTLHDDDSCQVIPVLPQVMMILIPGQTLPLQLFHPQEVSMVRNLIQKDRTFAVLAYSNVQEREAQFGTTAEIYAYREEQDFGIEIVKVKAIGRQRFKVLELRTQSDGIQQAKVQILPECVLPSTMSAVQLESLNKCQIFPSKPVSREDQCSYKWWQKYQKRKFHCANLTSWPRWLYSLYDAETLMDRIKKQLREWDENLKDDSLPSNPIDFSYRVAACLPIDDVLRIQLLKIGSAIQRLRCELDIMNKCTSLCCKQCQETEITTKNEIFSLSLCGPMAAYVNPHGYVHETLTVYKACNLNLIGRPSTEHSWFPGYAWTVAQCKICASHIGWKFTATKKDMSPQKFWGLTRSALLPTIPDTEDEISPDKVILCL
T1 sequence (Q16531 2-1140 partner limits assumed): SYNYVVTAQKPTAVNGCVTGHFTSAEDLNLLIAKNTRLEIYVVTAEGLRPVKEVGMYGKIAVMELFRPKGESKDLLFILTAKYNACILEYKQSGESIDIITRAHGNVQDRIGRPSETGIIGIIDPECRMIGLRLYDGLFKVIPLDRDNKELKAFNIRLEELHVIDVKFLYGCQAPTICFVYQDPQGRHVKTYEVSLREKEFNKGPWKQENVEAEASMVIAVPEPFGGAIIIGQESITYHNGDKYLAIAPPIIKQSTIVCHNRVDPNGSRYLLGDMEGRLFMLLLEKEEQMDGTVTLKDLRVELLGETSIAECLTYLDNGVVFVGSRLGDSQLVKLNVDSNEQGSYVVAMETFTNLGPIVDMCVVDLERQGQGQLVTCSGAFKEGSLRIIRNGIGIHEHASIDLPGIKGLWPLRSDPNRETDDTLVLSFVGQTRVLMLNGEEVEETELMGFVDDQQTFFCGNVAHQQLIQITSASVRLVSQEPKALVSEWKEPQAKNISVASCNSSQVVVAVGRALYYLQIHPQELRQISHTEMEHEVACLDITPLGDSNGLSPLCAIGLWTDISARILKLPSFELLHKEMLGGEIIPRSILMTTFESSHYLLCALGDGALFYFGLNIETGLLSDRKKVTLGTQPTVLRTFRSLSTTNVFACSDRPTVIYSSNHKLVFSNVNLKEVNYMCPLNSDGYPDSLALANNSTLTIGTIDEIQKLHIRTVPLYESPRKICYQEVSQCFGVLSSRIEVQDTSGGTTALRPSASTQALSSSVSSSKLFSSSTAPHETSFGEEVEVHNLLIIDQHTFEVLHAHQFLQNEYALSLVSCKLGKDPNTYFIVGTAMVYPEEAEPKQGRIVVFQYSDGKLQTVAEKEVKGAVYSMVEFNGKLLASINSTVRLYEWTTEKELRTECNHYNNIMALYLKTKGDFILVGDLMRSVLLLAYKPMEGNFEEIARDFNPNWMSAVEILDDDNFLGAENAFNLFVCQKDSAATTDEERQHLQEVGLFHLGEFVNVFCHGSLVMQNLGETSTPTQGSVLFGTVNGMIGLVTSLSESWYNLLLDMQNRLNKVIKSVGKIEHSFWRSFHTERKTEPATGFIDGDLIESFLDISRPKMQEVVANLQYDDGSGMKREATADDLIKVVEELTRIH
Description: Specific studies were carried out to assess the ability of Compound 1 to degrade Sal-like protein 4 (SALL4), a protein implicated in the teratogenicity induced by the IMiD®s class of IKZF1/IKZF3 degraders.

[4] = test system: Interferon-response proteins in DL-40 ALCL xenograft tumors; assay: Global proteomics and gene ontology of DL-40 ALCL xenograft tumors, 48 hours after dose; assay type: in vivo, mice; settings: 0.1 nM for 48 hr
Description: […] Gene ontology analysis was done by using BINGO, a Java-based tool that is implemented as a plugin for Cytoscape. Default settings were used to assess the overexpression of GO categories and the interactions among altered proteins were determined using the STRING database, with a cutoff score of 700.

O=C1CC[C@H](N2C(=O)c3cccc4c(Cc5ccc(CN6CCOCC6)cc5)ccc2c34)C(=O)N1 (single isomer, unassigned) [Compound 1]
IC50 [1]: 12 nM
IC50 [2]: 30 nM
degradation of SALL4 [3]: more than 85%
Log2 vs Vehicle, AAAS [4]: 0.043
Log2 vs Vehicle, ABCE1 [4]: −0.112
Log2 vs Vehicle, ADAR [4]: 0.065
Log2 vs Vehicle, ARIHI [4]: 0.023
Log2 vs Vehicle, B2M [4]: −0.048
Log2 vs Vehicle, BST2 [4]: 0.241
Log2 vs Vehicle, CAMK2A [4]: −0.697
Log2 vs Vehicle, CAMK2B [4]: 0.054
Log2 vs Vehicle, CAMK2D [4]: 0.038
Log2 vs Vehicle, CAMK2G [4]: −0.054
Log2 vs Vehicle, CD44 [4]: −0.377
Log2 vs Vehicle, CIITA [4]: −0.076
Log2 vs Vehicle, DDX58 [4]: 0.455
Log2 vs Vehicle, EIF2AK2 [4]: 0.527
Log2 vs Vehicle, EIF4A1 [4]: 0.13
Log2 vs Vehicle, EIF4A2 [4]: 0.08
Log2 vs Vehicle, EIF4A3 [4]: 0.079
Log2 vs Vehicle, EIF4E2 [4]: 0.179
Log2 vs Vehicle, EIF4E3 [4]: 0.208
Log2 vs Vehicle, EIF4G1 [4]: −0.048
Log2 vs Vehicle, EIF4G2 [4]: −0.071
Log2 vs Vehicle, EIF4G3 [4]: −0.108
Log2 vs Vehicle, FLNA [4]: 1.179
Log2 vs Vehicle, FLNB [4]: 0.234
Log2 vs Vehicle, GBP1 [4]: 0.343
Log2 vs Vehicle, GBP2 [4]: −0.269
Log2 vs Vehicle, GBP4 [4]: 0.388
Log2 vs Vehicle, HERC5 [4]: −0.149
Log2 vs Vehicle, HLA-A [4]: −0.128
Log2 vs Vehicle, HLA-B [4]: 0.066
Log2 vs Vehicle, HLA-C [4]: −0.065
Log2 vs Vehicle, HLA-DPA1 [4]: −0.139
Log2 vs Vehicle, HLA-DPB1 [4]: −0.023
Log2 vs Vehicle, HLA-DQA2 [4]: −0.144
Log2 vs Vehicle, HLA-DQB1 [4]: 0.055
Log2 vs Vehicle, HLA-DRA [4]: −0.133
Log2 vs Vehicle, HLA-DRB1 [4]: −0.1
Log2 vs Vehicle, HLA-E [4]: −0.167
Log2 vs Vehicle, HLA-F [4]: 0.408
Log2 vs Vehicle, ICAM1 [4]: 0.31
Log2 vs Vehicle, IFI30 [4]: 0.217
Log2 vs Vehicle, IFI35 [4]: 0.153
Log2 vs Vehicle, IFIT2 [4]: −0.186
Log2 vs Vehicle, IFIT3 [4]: 0.736
Log2 vs Vehicle, IR.F9 [4]: 0.535
Log2 vs Vehicle, IRF1 [4]: 0.147
Log2 vs Vehicle, IRF2 [4]: −0.265
Log2 vs Vehicle, IRF3 [4]: 0.114
Log2 vs Vehicle, IRF4 [4]: −0.452
Log2 vs Vehicle, IRF5 [4]: 0.192
Log2 vs Vehicle, IRF7 [4]: 0.264
Log2 vs Vehicle, ISG15 [4]: 0.241
Log2 vs Vehicle, ISG20 [4]: −0.168
Log2 vs Vehicle, J A KI [4]: 0.036
Log2 vs Vehicle, KPNA1 [4]: 0.045
Log2 vs Vehicle, KPNA2 [4]: 0.058
Log2 vs Vehicle, KPNA3 [4]: 0
Log2 vs Vehicle, KPNA4 [4]: 0.075
Log2 vs Vehicle, KPNB1 [4]: 0.038
Log2 vs Vehicle, MAPK3 [4]: −0.042
Log2 vs Vehicle, MT2A [4]: −0.297
Log2 vs Vehicle, MX1 [4]: 1.715
Log2 vs Vehicle, MX2 [4]: 0.83
Log2 vs Vehicle, NCAM1 [4]: −0.127
Log2 vs Vehicle, NDC1 [4]: −0.063
Log2 vs Vehicle, NEDD4 [4]: 0.375

Reference: US20230190760A1, “ADVANTAGEOUS THERAPIES FOR DISORDERS MEDIATED BY IKAROS OR AIOLOS” (C4 Therapeutics, Inc., priority 2020, published 2023)
